According to patent US7868014B2, “1-(hetero)aryl-3-amino-pyrrolidine derivatives for use as mGluR3 antagonists” (Eli Lilly and Company, priority 2004, dated 2011):
pIC50: −log10 of the molar value. Where a name gives a salt, the structure may show the parent alone.

Tests used:
human mGluR3 = biological target: T1, human mGluR3 (Homo sapiens, UniProt Q14832); assay: Antagonism of glutamate-induced increase in intracellular calcium (FLIPR) in mGluR3-expressing AV12 cells; format: cell-based; conditions: antagonism of 50 μM glutamate-induced calcium response, AV12 cells expressing human mGluR3 and Gα15, Fluo-3AM
T1 construct: expressed in transfected cells; host or cells: AV12 cells (adenovirus-transformed Syrian hamster cell line) stably expressing RGT and GLT, co-transfected with Galpha15
Description: Antagonism of Glutamate-Induced Increase in Intracellular Calcium with a mGluRs Expressing Cell Line
Introduce human mGluR3 and the promiscuous G-protein, Galpha15 (Gα15) into AV12 cells (an adenovirus-transformed Syrian hamster cell line) that stably express RGT (Rat Glutamate Transporter) and GLT (Glutamate Like Transporter). Maintain the expression of these four exogenous genes by culturing the cells in DMEM (Gibco, 11960-051) supplemented with 5% dialyzed fetal bovine serum, 2 mM glutamine, 1 mM sodium pyruvate, 10 mM HEPES, 100 μg/mL G418, 1 μg/mL puromycin, 1 μg/mL blastocidin, and 100 μg/mL zeocin. Passage confluent cultures weekly. The expression of Gα15 allows the change of the signaling pathway of the mGlu3 receptor to one that can be easily monitored through the release of intracellular calcium before and after the addition of drugs on a Fluorometric Imaging Plate Reader (i.e. FLIPR, Molecular Devices). Use the following buffers throughout as the Assay Buffer: HBSS (BioWhittaker, 10-527F) supplemented with 20 mM HEPES (Biowhittaker, 17-737E) at pH 7.4. Prepare a stock solution of 4 mM Fluo-3AM (Molecular Probes, F-1241), a calcium sensitive dye by adding 2.21 mL of 20% pluronate in DMSO to a vial containing 10 mg of Fluo-3AM. Sonicate the solution for 30 minutes to facilitate solubilization of the Fluo-3AM and then store at −20° C. Prepare the working solution of 8 μM Fluo-3AM by diluting the stock Fluo-3AM (4 mM) 500-fold into Assay Buffer. Harvest cells 24 h prior to assay using Hank's based cell dissociation solution (Specialty Media, a division of Cell & Molecular Technologies, S-004-B) and plate at a density of 50,000 cells per well in a 96-well poly-D-lysine treated black walled, clear bottom plate (Becton Dickinson, 356640). Incubate cells with 8 μM Fluo-3AM (50 μL per well) for 2 hours at 25° C. Following the dye-loading of the cells, remove the 8 μM Fluo-3AM and replace with Assay Buffer pre-warmed to 37° C. (50 μL per well). Ready the cells for assay on the FLIPR. Set the stage of the FLIPR to 34.5° C. prior to initiation of the assay. Perform a two addition FLIPR assay. Pre-warm the reagents for both additions (compounds and glutamate) to 37° C. prior to initiation of the assay. Add the test compound to the cell plate (50 μL per well) after taking an initial fluorescent read of the cell plate for 10 seconds. Test compounds in a 10 point concentration response curve starting at a final concentration on the cells of 12.5 μM with 3-fold dilutions in Assay Buffer/1.25% DMSO. Collect data every second for the first 30 seconds and then every 3 seconds until the second addition made at 2 minutes. Perform the second addition of 100 μM glutamate in Assay Buffer (100 μL per well for a final glutamate concentration of 50 μM on the cells) 2 minutes after the addition of compound. Collect the second addition data every second for 30 seconds and then every 3 seconds until the end of the run at total time of 3.25 minutes. Measure the response as maximal peak height in Relative Fluorescent Units (RFUs). Define the assay window as the maximal response obtained by 50 μM glutamate minus the response obtained by buffer alone. Express the results as a percent of the assay window.

male Sprague-Dawley rats = assay: Rat dural plasma protein extravasation (PPE) model; format: in vivo; conditions: 60 min before trigeminal ganglion stimulation, dose that gives an extravasation ratio of approximately 1
Description: Rat Dural Plasma Protein Extravasation (PPE) Model
Prepare 100 μg/ml stock solution of test compound in a DMSO/saline (20%/80% v/v) solution and make subsequent dilutions with saline. Dose male Sprague-Dawley rats from Harlan Laboratories (250-350 g) with test compound or saline vehicle by oral gavage (2 mL/kg) or intravenous tail-vein injection (1 mL/kg) 45 minutes prior to administration of anesthesia and placement in a stereotaxic frame for implantation of stimulating electrodes. The rats dosed via the oral route are fasted overnight prior to dosing. Fifteen minutes prior to trigeminal ganglion stimulation, the rats are anesthetized with Nembutal (60 mg/kg, ip.) and placed in a stereotaxic frame (David Kopf Instruments) with the incisor bar set at −2.5 mm. […]
A fluorescence microscope (Zeiss) equipped with a grating monochromator and a spectrophotometer is used to quantify the amount of FITC-BSA dye in each dural sample. […] This facilitates the computer-controlled movement of the stage, with fluorescence measurements at 25 points (500 μm steps) on each dural sample. […] The extravasation ratio (i.e. the ratio of the amount of extravasation in the dura from the stimulated side compared to the unstimulated side) is calculated. […]

T1 sequence (Q14832 23-879): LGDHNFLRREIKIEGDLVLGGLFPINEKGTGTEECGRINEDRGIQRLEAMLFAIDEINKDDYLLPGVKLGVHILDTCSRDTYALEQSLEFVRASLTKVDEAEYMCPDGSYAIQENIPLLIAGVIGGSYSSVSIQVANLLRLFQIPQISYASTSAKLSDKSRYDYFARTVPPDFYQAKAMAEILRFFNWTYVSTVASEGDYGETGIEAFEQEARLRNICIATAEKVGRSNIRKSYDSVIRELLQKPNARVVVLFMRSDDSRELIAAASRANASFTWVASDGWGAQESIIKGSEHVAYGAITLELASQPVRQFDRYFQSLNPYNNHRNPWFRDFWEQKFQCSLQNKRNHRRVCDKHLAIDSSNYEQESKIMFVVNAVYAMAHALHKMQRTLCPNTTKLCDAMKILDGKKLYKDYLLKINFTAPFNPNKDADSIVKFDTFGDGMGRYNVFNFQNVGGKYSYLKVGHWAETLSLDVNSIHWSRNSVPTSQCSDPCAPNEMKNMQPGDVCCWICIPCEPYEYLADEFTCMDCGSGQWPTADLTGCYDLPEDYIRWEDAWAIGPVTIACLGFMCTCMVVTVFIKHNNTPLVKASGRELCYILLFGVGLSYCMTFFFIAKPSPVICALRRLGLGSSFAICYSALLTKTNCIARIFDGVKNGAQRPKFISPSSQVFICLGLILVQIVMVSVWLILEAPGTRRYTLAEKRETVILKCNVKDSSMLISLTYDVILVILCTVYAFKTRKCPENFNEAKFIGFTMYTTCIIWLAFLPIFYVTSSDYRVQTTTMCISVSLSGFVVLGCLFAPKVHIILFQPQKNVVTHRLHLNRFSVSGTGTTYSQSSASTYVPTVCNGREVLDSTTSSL

Structure (SMILES)	pIC50 (human mGluR3)	ID100 (μg/mL) i.v. (male Sprague-Dawley rats; i.v. (tail-vein injection)) [µg/mL]	ID100 (μg/mL) p.o. (male Sprague-Dawley rats; p.o. (oral gavage)) [µg/mL]
N#Cc1cnc(N2CC[C@H](NCc3ccc(Cl)cc3Cl)C2)nc1 [Example 123, (S)-2-[3-(2,4-Dichlorobenzylamino)-pyrrolidin-1-yl]-pyrimidine-5-carbonitrile]	5.93	–	–
Clc1cnc(N2CC[C@H](NCc3ccc(Cl)cc3Cl)C2)nc1 [Example 134, (S)-[1-(5-Chloropyrimidin-2-yl)-pyrrolidin-3-yl]-(2,4-dichlorobenzyl)-amine]	7.11	–	–
CC(=O)c1ccc(N2CC[C@H](NCc3ccc(Cl)cc3Cl)C2)s1 [Example 6, (S)-1-{5-[3-(2,4-Dichlorobenzylamino)-pyrrolidin-1-yl]-thiophen-2-yl}-ethanone]	5.41	–	–
Clc1ccc(CN[C@H]2CCN(c3ccc(I)cn3)C2)c(Cl)c1 [Example 23, (S)-(2,4-Dichlorobenzyl)-[1-(5-iodopyridin-2-yl)-pyrrolidin-3-yl]-amine hydrochloride]	6.22	–	–
Clc1ccc(CN[C@H]2CCN(c3ncc(Br)cn3)C2)c(Cl)c1 [Example 28, (S)-[1-(5-Bromopyrimidin-2-yl)-pyrrolidin-3-yl]-(2,4-dichlorobenzyl)-amine]	6.47	3	3
FC1CN(c2ncc(Br)cn2)CC1NCc1ccc(Cl)cc1Cl (centres unmarked) [Example 101, [1-(5 -Bromopyrimidin-2-yl)-4-fluoropyrrolidin-3-yl]-(2,4-dichlorobenzyl)-amine hydrochloride]	5.31	–	–
O=[N+]([O-])c1ccc(N2CC[C@H](NCc3ccc(Cl)cc3Cl)C2)nc1 [Example 1, (S)-(2,4-Dichlorobenzyl)-[1-(5-nitropyridin-2-yl)-pyrrolidin-3-yl]-amine]	6.72	–	–

Continued by rising pIC50 (human mGluR3), values first:

pIC50 (human mGluR3)	Structure (SMILES)	ID100 (μg/mL) i.v. (male Sprague-Dawley rats; i.v. (tail-vein injection)) [µg/mL]	ID100 (μg/mL) p.o. (male Sprague-Dawley rats; p.o. (oral gavage)) [µg/mL]
5.24	Fc1ccc(N2CC[C@H](NCc3ccccc3I)C2)cn1 [Example 59, (S)-[1-(6-Fluoropyridin-3-yl)-pyrrolidin-3-yl]-(2-iodobenzyl)-amine hydrochloride]	–	–
5.64	Clc1ccc(CN[C@H]2CCN(c3ccc(-c4ccccc4)cn3)C2)c(Cl)c1 [Example 108, (S)-(2,4-Dichlorobenzyl)-[1-(5-phenylpyridin-2-yl)-pyrrolidin-3-yl]-amine]	–	–
5.77	O=C1CN(c2ncc(Br)cn2)CC1NCc1ccc(Cl)cc1Cl (centres unmarked) [Example 121, 1-(5-Bromopyrimidin-2-yl)-4-(2,4-dichlorobenzylamino)-pyrrolidin-3-one]	–	–
5.78	FC(F)(F)c1ccc(CN[C@H]2CCN(c3ncc(Br)cn3)C2)c(Cl)c1 [Example 112, (3S)-[1-(5-Bromopyrimidin-2-yl)-pyrrolidin-3-yl]-(2-chloro-4-trifluoromethylbenzyl)-amine]	–	–
6.84	C#Cc1ccc(N2CC[C@H](NCc3ccc(Cl)cc3Cl)C2)nc1 [Example 87, (S)-(2,4-Dichlorobenzyl)-[1-(5-ethynylpyridin-2-yl)-pyrrolidin-3-yl]-amine]	–	–
